pEC50: −log10 of the molar value. Where two headings read alike, the source gives them in different places.
Experiments:
[1] = tested on: A549 NSCLC cells; experiment: Cell cycle analysis by flow cytometry; assay type: cell-based, human; conditions: A549, 24 h treatment
Method: A549 NSCLC cells (ATTC CCL-185) are cultivated in DMEM with high glucose (supplemented with 10% FBS) at 5% CO2 and 37° C. in a humidified atmosphere under standard cell culture conditions. 24 h before compound treatment, cells are seeded at 5×10^4 cells/ml (=5×10^5 cells/10 cm cell culture dish) to allow logarithmic proliferation during the experiment. After 24 h, cells were treated with test compound or 0.5 vol % DMSO as a control. After 24 h and 48 h treatment, the culture medium is collected and detached, floating cells are collected by short centrifugation (5 min at 1200 rpm). Attached cells are washed once with 5 ml PBS, detached by treatment with 3 ml trypsin/EDTA solution (short incubation for 3-5 min) and—together with detached, floating cells—transferred into 15 ml Falcon tubes. The cell culture dish is washed with 10 ml DMEM to collect all remaining cells. After centrifugation for 5 min at 1200 rpm at room temperature, the supernatant is discarded and the cell pellet washed twice with 10 ml PBS. The supernatant is discarded, the cells resuspended in 4 ml ice-cold fixation solution (70 vol % ethanol, 30 vol % H2O; stored at −20° C.) and stored at −20° C. overnight. Next, 10 ml PBS (4° C.) is added to the cells, before centrifugation for 5 min at 1200 rpm (4° C.). The supernatant is discarded, the cell pellet washed once with 10 ml PBS (4° C.) and the cell pellet finally resuspended in about 1 ml staining solution (10 μg/ml RNAse A, 10 μg/ml propidiumiodide in PBS, final volume dependent on cell number). After incubation for 30 min at room temperature in the dark, cells are stored on ice and analyzed using the Becton Dickinson FACS Canto device. Analysis is done at an excitation of λ=488 nm with emission set as λ=600 nm.
Data analysis: Cells are analyzed according to size, granularity and propidiumiodide intensity. Size and granularity of cells are determined by measurement of forward scatter (FSC) and side scatter (SSC) of the λ=488 nm excitation light, respectively. To discriminate cells with 4N DNA content from cell doublets (two attached cells with 2N DNA content each), the ratio between the area under the propidiumiodide peak (PE-A) and the height of the propidiumiodide peak (PE-H) for each cell is determined. Cell doublets need more time to pass through the laser beam, which causes a broadening of the propidiumiodide peak and an increase of the ratio PE-A/PE-H. Using this analysis, cells in 4N and cell doublets appear as distinct clouds in a scatter plot and are excluded from the analysis. Thus, the area under the propidiumiodide peak at λ=600 nm (PE-A) is a measure for the DNA content of the cells. PE-A is blotted against the measured cell number in a histogram in order to determine the percentage of analyzed cells in an individual stage of the cell cycle.

[2] = tested on: histone H3 hyperacetylation in HeLa cervical carcinoma cells; experiment: Cellular histone H3 hyperacetylation assay; assay type: cell-based; conditions: Homo sapiens, 24 h treatment
Excerpt: To assess the cellular efficacy of a histone deacetylase inhibitor in vitro, an assay is set up in black clear-bottom 96-well plates and optimized for use on the Cellomics “ArrayScan II” platform for a quantitative calculation of histone acetylation. The protocol uses a polyclonal rabbit antibody, specifically binding to acetylated lysine 1-20 (including K 9 and K14) of human histone H3 on fixed cells with an Alexa Fluor 488 labeled goat anti rabbit-IgG used for counterstaining 5×10^3 HeLa cervical carcinoma cells/well (ATCC CCL-2) in 200 μl Dulbecco's modified Eagle's medium (DMEM) containing 10% fetal calf serum are seeded at day 1 in Packard view plates and incubated for 24 h under standard cell culture conditions. On day 2, 1 μl test compound (200× final concentration) is added and incubation continued for further 24 h. On day 3, the culture medium is discarded and attached cells fixed for 15 min at room temperature by addition of 100 μl fixation buffer (3.7% v:v formaldehyde in phosphate buffered saline/PBS). After discarding the fixation buffer and one wash with blocking solution (1% BSA, 0.3% Tween 20 in PBS), cells are permeabilized at room temperature by addition of 100 μl /well permeabilization buffer (30.8 mM NaCl, 0.54 mM Na2HPO4, 0.31 mM KH2PO4, 0.1% v:v Triton X-100) for 15 min at room temperature. After discarding the permeabilization buffer and washing twice with 100 μl/well blocking solution at room temperature, the 1st antibody (anti-K1-20 histone H3 antibody, Calbiochem No. 382158) in blocking solution (50 μl/well) is added. After incubation for 1 h at room temperature, the wells are washed twice at room temperature with 100 μl/well blocking solution before addition of the 2nd antibody (goat-anti-rabbit Alexa Fluor 488; MoBiTec No. A -11008) in blocking solution (50 μl well). After further incubation for 1 h at room temperature, wells are washed twice with 100 μl/well blocking solution at room temperature. Finally, 100 μl/well PBS are added and image analysis performed on the Cellomics “ArrayScan II” platform. For EC50 determination, the percentage of positive cells showing nuclear fluorescence is determined and EC50 calculation done from concentration-effect curves by means of non-linear regression. For calibration, a positive (reference HDAC inhibitors like SAHA or NVP LBH-589) and a negative control were included.

[3] = tested on: A549 NSCLC cells; experiment: Cellular cytotoxicity assay (Alamar Blue), A549; assay type: cell-based; conditions: Homo sapiens, 72 h, upper end given as ≧100, read-out: IC50 (μM), cytotoxicity towards A549 NSCLC cells
In short: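 Resazurin-to-resorufin fluorescence (ex 544, em 590 nm, after 4 h) gave viability as % of untreated cells following 72 h compound exposure at 37 °C. Compounds were added in semi-logarithmic dilutions 24 h post-seeding, quadruplicate wells; IC50 fitted by non-linear regression of concentration-effect curves.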

[4] = read-out: EC50, induction of histone H3 hyperacetylation
[5] = read-out: −lg EC50, induction of histone H3 hyperacetylation

pEC50 [2, 4] | pEC50 [2, 5] | Structure (SMILES) | concentration inducing arrest in G1, depletion of cells in the S-phase and reduction of cells in the G2/M-phase [1] | IC50 [3] [µM]
4.82 to 6.82 | 4.80 to 6.60 | Nc1ccccc1NC(=O)c1nc2c(s1)CN(C(=O)OCc1cccnc1)CC2 [Example 189, Pyridin-3-ylmethyl 2-[(2-aminophenyl)carbamoyl]-6,7-dihydro[1,3]thiazolo[5,4-c]pyridine-5(4H)-carboxylate] | around 3 μM | ≥ 0.2
4.82 to 6.82 | 4.80 to 6.60 | COC(=O)N1CCc2nc(C(=O)Nc3ccccc3N)sc2C1 [Example 180, Methyl 2-[(2-aminophenyl)carbamoyl]-6,7-dihydro[1,3]thiazolo[5,4-c]pyridine-5(4H)-carboxylate] | – | ≥ 0.2
4.82 to 6.82 | 4.80 to 6.60 | Nc1ccccc1NC(=O)c1nc2c(s1)CN(c1nccc(-c3cccnc3)n1)CC2 [Example 193, N-(2-aminophenyl)-5-(4-pyridin-3-ylpyrimidin-2-yl)-4,5,6,7-tetrahydro[1,3]thiazolo[5,4-c]pyridine-2-carboxamide] | – | ≥ 0.2
4.82 to 6.82 | 4.80 to 6.60 | Cc1ccc(OC(=O)N2CCc3nc(C(=O)Nc4ccccc4N)sc3C2)cc1 [Example 182, 4-methylphenyl 2-[(2-aminophenyl)carbamoyl]-6,7-dihydro[1,3]thiazolo[5,4-c]pyridine-5(4H)-carboxylate] | around 3 μM | ≥ 0.2
4.82 to 6.82 | 4.80 to 6.60 | Cc1ccc(S(=O)(=O)Nc2ccc(N3CCc4nc(C(=O)Nc5ccccc5N)sc4C3)nc2)cc1 [Example 197, N-(2-aminophenyl)-5-(5-{[(4-methylphenyl)sulfonyl]amino}pyridin-2-yl)-4,5,6,7-tetrahydro[1,3]thiazolo[5,4-c]pyridine-2-carboxamide] | – | ≥ 0.2

Continued, compound first:

Structure (SMILES) | pEC50 [2, 4] | pEC50 [2, 5] | concentration inducing arrest in G1, depletion of cells in the S-phase and reduction of cells in the G2/M-phase [1] | IC50 [3] [µM]
Nc1ccccc1NC(=O)c1nc2c(s1)CN(C(=O)Nc1ccc3c(c1)OCO3)CC2 [Example 7, N^2-(2-aminophenyl)-N5-1,3-benzodioxol-5-yl-6,7-dihydro[1,3]thiazolo[5,4-c]pyridine-2,5(4H)-dicarboxamide] | 4.82 to 6.82 | 4.80 to 6.60 | – | ≥ 0.2
COc1ccc(S(=O)(=O)N2CCc3nc(C(=O)Nc4ccccc4N)sc3C2)cc1 [Example 153, N-(2-aminophenyl)-5-[(4-methoxyphenyl)sulfonyl]-4,5,6,7-tetrahydro[1,3]thiazolo[5,4-c]pyridine-2-carboxamide] | 4.82 to 6.82 | 4.80 to 6.60 | around 3 μM | ≥ 0.2
COc1ccc(NC(=NC#N)N2CCc3nc(C(=O)Nc4ccccc4N)sc3C2)cc1OC [Example 118, N-(2-aminophenyl)-5-{(cyanoimino)[(3,4-dimethoxyphenyl)amino]methyl}-4,5,6,7-tetrahydro[1,3]thiazolo[5,4-c]pyridine-2-carboxamide] | 4.82 to 6.82 | 4.80 to 6.60 | – | ≥ 0.2
CC(=O)N1CCc2nc(C(=O)Nc3ccccc3N)sc2C1 [Example 92, 5-acetyl-N-(2-aminophenyl)-4,5,6,7-tetrahydro[1,3]thiazolo[5,4-c]pyridine-2-carboxamide] | 4.82 to 6.82 | 4.80 to 6.60 | – | ≥ 0.2
COc1ccc(NC(=O)N2CCc3nc(C(=O)Nc4ccccc4N)sc3C2)cc1OC [Example 19, N^2-(2-aminophenyl)-N^5-(3,4-dimethoxyphenyl)-6,7-dihydro[1,3]thiazolo[5,4-c]pyridine-2,5(4H)-dicarboxamide] | 4.82 to 6.82 | 4.80 to 6.60 | – | ≥ 0.2
Nc1ccccc1NC(=O)c1nc2c(s1)CN(C(=O)COc1ccc(-c3ccccc3)cc1)CC2 [Example 176, N-(2-aminophenyl)-5-[(biphenyl-4-yloxy)acetyl]-4,5,6,7-tetrahydro[1,3]thiazolo[5,4-c]pyridine-2-carboxamide] | 4.82 to 6.82 | 4.80 to 6.60 | – | ≥ 0.2
COc1cccc(S(=O)(=O)N2CCc3nc(C(=O)Nc4ccccc4N)sc3C2)c1 [Example 160, N-(2-aminophenyl)-5-[(3-methoxyphenyl)sulfonyl]-4,5,6,7-tetrahydro[1,3]thiazolo[5,4-c]pyridine-2-carboxamide] | 4.82 to 6.82 | 4.80 to 6.60 | – | ≥ 0.2

Source: patent publication US8440830B2, “Tetrahydro-fused pyridines as histone deacetylase inhibitors” (4SC AG, priority 2007, dated 2013)
